Eight molecules from ChEMBL document CHEMBL1159082, “Phenylacetic acid regioisomers possessing a N-difluoromethyl-1,2-dihydropyrid-2-one pharmacophore: evaluation as dual inhibitors of cyclooxygenases and 5-lipoxygenase with anti-inflammatory activity” (Bioorg Med Chem Lett, 2010) can be followed below.

Molecules are shown by their SMILES. A value given as a limit tells only on which side of the number the result lay.

The subject of test [1] is Rattus norvegicus. Description: Antiinflammatory activity against carrageenan-induced paw edema in rat at 100 mg/kg, po. The test is classed as functional. (Carrageenan injected into the paw causes an acute inflammation.)
Test [2] can be described thus: Inhibition of potato 5-Lipoxygenase by enzyme immuno assay. Set-up: species or system Solanum tuberosum.
For test [3], the target named is T1, Prostaglandin G/H synthase 1 (Ovis aries, UniProt P05979).
T1 sequence (P05979 whole entry): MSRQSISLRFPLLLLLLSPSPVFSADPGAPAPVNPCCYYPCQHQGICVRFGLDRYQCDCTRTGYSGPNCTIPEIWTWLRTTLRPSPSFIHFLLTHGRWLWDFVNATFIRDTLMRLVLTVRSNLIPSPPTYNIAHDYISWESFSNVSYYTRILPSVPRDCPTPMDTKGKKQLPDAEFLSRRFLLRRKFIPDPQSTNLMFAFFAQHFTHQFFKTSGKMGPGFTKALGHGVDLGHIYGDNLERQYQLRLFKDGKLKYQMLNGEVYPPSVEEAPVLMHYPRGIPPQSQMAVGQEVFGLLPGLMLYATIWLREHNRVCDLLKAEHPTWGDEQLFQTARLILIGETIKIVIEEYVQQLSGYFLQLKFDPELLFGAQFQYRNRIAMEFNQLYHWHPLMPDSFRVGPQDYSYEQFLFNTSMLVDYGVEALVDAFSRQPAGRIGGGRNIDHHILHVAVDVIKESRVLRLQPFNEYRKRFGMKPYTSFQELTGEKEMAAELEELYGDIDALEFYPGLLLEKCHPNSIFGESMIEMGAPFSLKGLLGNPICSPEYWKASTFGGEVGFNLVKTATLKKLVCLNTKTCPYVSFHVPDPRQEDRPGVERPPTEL
Description: Inhibition of ovine COX1 by enzyme immuno assay

Test [4] addresses T2, Prostaglandin G/H synthase 2 (Homo sapiens, UniProt P35354).
T2 sequence (P35354 whole entry): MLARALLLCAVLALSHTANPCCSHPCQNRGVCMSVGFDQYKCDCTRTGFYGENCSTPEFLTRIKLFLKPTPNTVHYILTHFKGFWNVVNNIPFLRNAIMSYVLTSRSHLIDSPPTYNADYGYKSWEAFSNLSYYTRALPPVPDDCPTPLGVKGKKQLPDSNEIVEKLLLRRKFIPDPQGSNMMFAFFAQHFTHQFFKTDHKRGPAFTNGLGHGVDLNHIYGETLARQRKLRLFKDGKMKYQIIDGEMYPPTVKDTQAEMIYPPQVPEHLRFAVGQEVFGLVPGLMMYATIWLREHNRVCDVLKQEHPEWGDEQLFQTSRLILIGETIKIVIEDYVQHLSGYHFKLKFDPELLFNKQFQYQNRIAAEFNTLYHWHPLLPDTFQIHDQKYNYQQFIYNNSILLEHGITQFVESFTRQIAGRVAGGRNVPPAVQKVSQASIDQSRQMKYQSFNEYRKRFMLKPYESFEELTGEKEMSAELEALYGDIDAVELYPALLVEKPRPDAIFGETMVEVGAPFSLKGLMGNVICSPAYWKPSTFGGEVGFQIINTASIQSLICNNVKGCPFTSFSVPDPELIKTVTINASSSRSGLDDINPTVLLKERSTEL
Description: Inhibition of human recombinant COX2 by enzyme immuno assay.

Test [5] has as its system Rattus norvegicus. Briefly: Antiinflammatory activity against carrageenan-induced paw edema in po dosed rat. The test is classed as functional.
Test [6] relates to Rattus norvegicus. Description: Antiinflammatory activity against carrageenan-induced paw edema in rat at 30 mg/kg, po. The test is classed as functional.
Test [7] concerns Rattus norvegicus. Description: Antiinflammatory activity against carrageenan-induced paw edema in rat at 150 mg/kg, ip. It counts as functional. Particulars: route intraperitoneal.
Test [8] has as its system Rattus norvegicus. Briefly: Antiinflammatory activity against carrageenan-induced paw edema in rat at 150 mg/kg, po relative to ibuprofen. It counts as functional.

For `O=C(O)Cc1cccc(-c2ccn(C(F)F)c(=O)c2)c1`, 100 mg/kg produced 11.2% inhibition in vivo in the test on Rattus norvegicus [1]. The IC50 (in general, the midpoint of a concentration-inhibition curve) in test [2] was 370 nM; in test [3], over 100000 nM; in test [4], 11100 nM.
As to `CC(C)Cc1ccc(C(C)C(=O)O)cc1` (configuration not stated) [IBUPROFEN], in the test with Rattus norvegicus [5], the 50% effect level (ED50) was put at a dose of 67.4 mg/kg.
Regarding `O=C(O)/C=C/c1ccc(O)c(O)c1` [CAFFEIC ACID], the half-maximal inhibitory concentration (IC50) in test [2] is 4000 nM. Further, at 30 mg/kg the inhibition in vivo in the test on Rattus norvegicus [6] was 8.2%.
Take `CC(Cc1ccc(O)c(O)c1)C(C)Cc1ccc(O)c(O)c1` (configuration not stated) [NORDIHYDROGUAIARETIC ACID]: testing at 30 mg/kg in the test on Rattus norvegicus [6] gave an inhibition in vivo of 15.1%.
For the molecule `CC(C(=O)O)c1ccccc1-c1ccn(C(F)F)c(=O)c1` (configuration not stated), the half-inhibitory concentration (IC50) in test [2] is 2000 nM; in test [3], over 100000 nM; in test [4], 2600 nM.
In the case of `CC(C(=O)O)c1ccc(-c2ccn(C(F)F)c(=O)c2)cc1` (configuration not stated), the results for the half-maximal inhibitory concentration (IC50) in test [2], in test [3] and in test [4] were 3000 nM, 15300 nM and 2400 nM, respectively.
On the same counts, the results for `O=C(O)Cc1ccc(-c2ccn(C(F)F)c(=O)c2)cc1` are 3470 nM, 9600 nM and 890 nM.
`O=C(O)Cc1ccccc1-c1ccn(C(F)F)c(=O)c1`: the values for the inhibition in vivo at 150 mg/kg with Rattus norvegicus [7] and in the test on Rattus norvegicus [8] were 18.5% and 19.9%, respectively. Further, the IC50 came to 200 nM in test [2], 5500 nM in test [3] and 860 nM in test [4].
